Patent publication US9957546B2, “Vivo detection of phospholipase activation” (THE TRUSTEES OF THE UNIVERSITY OF PENNSYLVANIA, priority 2008, dated 2018)
Blank lines part the entries; values can stand above or below the compound they belong to.

Assays:
[1] = tested on: PC-PLC; details: Amplex Red, resorufin fluorescence
Description: To validate the presence of PC-PLC activity in DU145 tumor xenografts, the Amplex Red PC-PLC assay kit (Molecular Probes) was used to measure PC-PLC activity in extracts of excised tumors.

[2] = molecular target: PC-PLC (Bacillus cereus, UniProt P09598)
Chain of PC-PLC (Bacillus cereus, UniProt P09598) (P09598 39-283 limits assumed): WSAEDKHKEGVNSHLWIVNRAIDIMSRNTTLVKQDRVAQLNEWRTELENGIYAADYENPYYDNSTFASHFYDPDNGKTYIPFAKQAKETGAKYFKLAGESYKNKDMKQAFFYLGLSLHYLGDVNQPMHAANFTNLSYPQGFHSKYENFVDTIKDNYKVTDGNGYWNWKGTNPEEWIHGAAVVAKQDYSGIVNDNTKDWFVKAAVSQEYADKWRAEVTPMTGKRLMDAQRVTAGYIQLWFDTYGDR
Procedure: Phospholipase (0.5 to 5 units) are added to 1 μM fluorophore-BHQ in PtdCho vesicles_(MF=0.05) to yield a final volume of 100 μL. Initial velocities are measured as a function of enzyme concentration. For bulk kinetics, an enzyme concentration that gives a linear response is chosen. The lipid dispersions is diluted in buffer such that the fluorophore-BHQ concentration varies from 0.3-3 μM. The temperature is held at 37° C. and phospholipase added to a total volume of 100 μL. The released fluorescence is measured and the initial velocities recorded as a function of bulk lipid concentration. A Lineweaver-Burke plot of 1/V0 vs 1/[S] gives a straight line with […] and y intercept of 1/Vmax. For interfacial kinetics, lipid dispersions of fluorophore-BHQ and PtdCho are diluted in Triton X-100 with the total lipid concentration held at 20 μM. The ratios of fluorophore-BHQ to PtdCho are held constant, but varied relative to the MF of Triton with a total MF of fluorophore-BHQ of =0.01-0.05). Initial velocities are recorded as a function of concentration, and kinetic parameters are calculated.
Activity, in RFU/min/mg, was measured as a function of D609 concentration after the addition of 0.5 U PC-PLC (FIG. 2D).

[3] = In vivo distribution of Pyro-PL (Maestro spectral deconvolution, ex vivo IVIS organ imaging); design: species or system mice
Procedure: Methods for separation of probe fluorescence and autofluorescence have been developed that result in a more accurate detection of in vivo probe fluorescence. In FIG. 11, mice injected with the permanently fluorescent Pyro-PL are imaged with the CRI Maestro System, and the resulting images resolved into probe and autofluorescence on the basis of emission spectrum deconvolution. These images confirm that Pyro-PL localizes in the tumor within minutes, and persists for about 3 hours, consistent with FIGS. 12A and 13A. By 2 hours, the probe is also being removed from circulation, with concentration first in the liver, and then in the intestine for excretion in the stool.

[4] = Tolerability of Pyro-PL in mice; format: in vivo
[5] = Incorporation of Pyro-PL into PtdCho vesicles (self quenching/aggregation); format: physicochemical; details: 1 μM Pyro-PL, [PtdCho]>200 μM
Procedure: A measured amount of Pyro-PL-BHQ or Pyro-PL (ε=110,000 M^−1 cm^−1 at 410 nm) was combined with PtdCho (chicken egg, Avanti Polar Lipids, Inc., Alabaster, Ala.) in chloroform and dried under a stream of nitrogen.
In order to determine the mole fraction (MF) at which all fluorophore can be assumed to be completely incorporated and intercalated into the PtdCho vesicles, an experiment was conducted in which the concentration of PtdCho was varied while Pyro-PL concentration was held constant at 1 μM (FIG. 4A). The fluorescence intensity increases as the Pyro-PL disperses into the PtdCho vesicles. The fluorescence plateaus at the point at which aggregation is negligible.

[6] = Quenching of Pyro fluorescence (fluorescence emission spectra); format: physicochemical
Description: In Pyro-PL-BHQ, BHQ acts as an effective quencher of Pyro fluorescence, reducing the fluorescence emission relative to Pyro-PL between 25-fold (for λex=675, λem=725 nm) and 45-fold (for λex=418, λem=695 nm) (FIG. 14).

[7] = tested on: DU145 prostate cells; test: Cell uptake and in situ activation, laser confocal microscopy; format: cell-based, human; details: 10 mM PB, 6 h

Compound: S=C([S-])OC1CC2CC1C1CCCC21.[K+] (stereo not drawn) [D609]
- PC-PLC activity in tumor extracts as a function of D609 concentration [1]: decrease as a function of D609 concentration
- Inhibition of PC-PLC hydrolysis of Pyro-PL-BHQ at 500 μM D609 ([2]; 500 μM D609, 0.5 U PC-PLC): Complete inhibition
- Fluorescence release from Pyro-PL-BHQ/PtdCho vesicles in presence of inhibitor ([2]; FIG. 3A): inhibited
- IC50 ([2]; read-out: IC50 of inhibition of PC-PLC activity toward Pyro-PL-BHQ, 1 μM Pyro-PL-BHQ, MF 0.003 in egg-PtdCho dispersions, 0.5 U PC-PLC): 34 ± 8 µM
- Ki ([2]; read-out: Ki (x-intercept of Km(app)/Vmax(app) vs. D609), Lineweaver-Burke plot of inhibition using 8, 50, 100 μM D609): 250 µM

Compound: C=Cc1c(C)c2cc3nc(c4c5[nH]c(cc6nc(cc1[nH]2)C(C)=C6CC)c(C)c5C(=O)C4)C(CCC(=O)OC(COC(=O)CCCCCCCCCCCCCCC)COP(=O)(O)OCCN)C3C (stereo not drawn) [Pyro-PL]
- organ fluorescence at 2 h ([3]; 2 h): majority of the fluorescence appears in the liver
- organ fluorescence ex vivo at 24 h ([3]; IVIS, 24 h): major fluorescence persisted in the liver, kidney and digestive tract
- time of accumulation in the tumor ([3]; Maestro system): ≤ 10 min
- tolerability [4]: well tolerated by mice
- Pyro-PL mole fraction (MF) at which fluorescence plateaus (aggregation negligible) [5]: < 0.005

- quenching efficiency (second Pyro as acceptor) [6]: ~4 fold
Compound: C=Cc1c(C)c2cc3nc(c4c5[nH]c(cc6nc(cc1[nH]2)C(C)=C6CC)c(C)c5C(=O)C4)C(CCC(=O)NCCCCCC(=O)OCC(COP(=O)([O-])OCC[N+](C)(C)C)OC(=O)CCCCCNC(=O)CCC1c2nc(cc4[nH]c(cc5nc(cc6[nH]c7c2CC(=O)c7c6C)C(CC)=C5C)c(C=C)c4C)C1C)C3C (stereo not drawn) [PyroPyro-PL]

Compound: phenylbutyrate [PB]
- effect on Pyro-PL-BHQ fluorescence in cells [7]: fluorescence is increased
